We go through 25 molecules from patent US20230078764A1 (Yumanity Therapeutics, Inc., priority 2019, published 2023).

Where two headings read alike, the source gives them in different places.

The target of one experiment is T1, human SCD1 (Homo sapiens, UniProt O00767).
T1 construct: expressed in transfected cells; host or cells: yeast strain with OLE1 deleted, plasmid-borne human SCD1 (selected in SD-Ura)
T1 sequence (O00767 1-359): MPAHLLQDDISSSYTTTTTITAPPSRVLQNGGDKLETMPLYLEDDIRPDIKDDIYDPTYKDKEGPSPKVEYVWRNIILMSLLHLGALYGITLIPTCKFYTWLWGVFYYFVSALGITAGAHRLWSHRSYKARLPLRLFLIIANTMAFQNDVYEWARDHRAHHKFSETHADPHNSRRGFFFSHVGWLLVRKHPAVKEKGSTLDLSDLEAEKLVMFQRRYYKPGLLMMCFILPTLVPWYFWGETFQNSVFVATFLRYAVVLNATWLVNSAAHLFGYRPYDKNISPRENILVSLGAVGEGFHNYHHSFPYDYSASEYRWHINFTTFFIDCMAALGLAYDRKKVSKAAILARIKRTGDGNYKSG
Description: Growth inhibition of yeast strain expressing human SCD1 as sole desaturase (OLE1 deleted), OD600 readout. Type of experiment: cell-based.

The target in the next experiment is T2, human SCD5 (Homo sapiens, UniProt Q86SK9).
T2 construct: expressed in transfected cells; host or cells: yeast strain with OLE1 deleted, plasmid-borne human SCD5 (selected in SD-Ura)
T2 sequence (Q86SK9 1-330): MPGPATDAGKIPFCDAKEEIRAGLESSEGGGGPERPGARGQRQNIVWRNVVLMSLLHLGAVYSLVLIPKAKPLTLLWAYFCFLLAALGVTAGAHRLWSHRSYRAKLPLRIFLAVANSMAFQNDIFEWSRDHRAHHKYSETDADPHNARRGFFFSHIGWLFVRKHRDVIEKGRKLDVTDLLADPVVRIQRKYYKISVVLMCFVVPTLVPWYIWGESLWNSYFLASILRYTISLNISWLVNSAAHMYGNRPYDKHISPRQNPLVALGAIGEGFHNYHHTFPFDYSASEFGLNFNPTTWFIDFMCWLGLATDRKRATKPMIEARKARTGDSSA
Kind of experiment: Growth inhibition of yeast strain expressing human SCD5 as sole desaturase (OLE1 deleted), OD600 readout. Type of experiment: cell-based.

Setting [1] is: yeast strain expressing human SCD1 as sole desaturase, growth (OD600) after 40 h at 30° C., read-out: SCD1 IC50.
Setting [2] is: yeast strain expressing human SCD5 as sole desaturase, growth (OD600) after 40 h at 30° C., read-out: SCD5 IC50.

`CCn1nc(C(=O)Nc2ccc(Cc3cccc(F)c3)cn2)ccc1=O` [Compound 68, 1-ethyl-N-(5-(3-fluorobenzyl)pyridin-2-yl)-6-oxo-1,6-dihydropyridazine-3-carboxamide]: the results for the IC50 on human SCD1 (setting [1]) and at human SCD5 (setting [2]) were 1650 nM and 260 nM, respectively.

In the case of `CCn1nc(C(=O)Nc2ccc(Cc3cc(F)cc(C#N)c3)cn2)ccc1=O` [Compound 69, N-(5-(3-cyano-5-fluorobenzyl)pyridin-2-yl)-1-ethyl-6-oxo-1,6-dihydropyridazine-3-carboxamide], the IC50 (in general, the concentration that inhibits the measured activity by half) was > 45000 nM at human SCD1 (setting [1]) and 270 nM at human SCD5 (setting [2]).

As to `CCn1nc(C(=O)Nc2ccc(Cc3ccc(Cl)c(Cl)c3)cn2)ccc1=O` [Compound 70, N-(5-(3,4-dichlorobenzyl)pyridin-2-yl)-1-ethyl-6-oxo-1,6-dihydropyridazine-3-carboxamide], the IC50 at human SCD1 (setting [1]) turned out to be 2900 nM; at human SCD5 (setting [2]), 490 nM.

As to `CCCn1nc(C(=O)Nc2ccc(Cc3cccc(F)c3)cn2)ccc1=O` [Compound 71, N-(5-(3-fluorobenzyl)pyridin-2-yl)-6-oxo-1-propyl-1,6-dihydropyridazine-3-carboxamide], the figures for the IC50 on human SCD1 (setting [1]) and at human SCD5 (setting [2]) were > 45000 nM and 3910 nM, respectively.

For the molecule `CC(C)n1nc(C(=O)Nc2ccc(Cc3cccc(F)c3)cn2)ccc1=O` [Compound 72, N-(5-(3-fluorobenzyl)pyridin-2-yl)-1-isopropyl-6-oxo-1,6-dihydropyridazine-3-carboxamide], the results for the IC50 against human SCD1 (SCD1 IC50) and at human SCD5 (SCD5 IC50) were 4700 nM and 390 nM, respectively.

With `CC(C)n1nc(C(=O)Nc2ccc(Cc3cccc(Cl)c3)cn2)ccc1=O` [Compound 73, N-(5-(3-chlorobenzyl)pyridin-2-yl)-1-isopropyl-6-oxo-1,6-dihydropyridazine-3-carboxamide], the IC50 was 8080 nM at human SCD1 (setting [1]) and 170 nM at human SCD5 (setting [2]).

Regarding `O=C(Nc1ccc(Cc2cc(F)cc(Cl)c2)cn1)c1ccc(=O)n(C2CC2)n1` [Compound 74, N-(5-(3-chloro-5-fluorobenzyl)pyridin-2-yl)-1-cyclopropyl-6-oxo-1,6-dihydropyridazine-3-carboxamide], the figures for the IC50 at human SCD1 (setting [1]) and on human SCD5 (setting [2]) were 250 nM and 10 nM, respectively.

As to `O=C(Nc1ccc(Cc2cccc(F)c2)cn1)c1ccc(=O)n(C2CC2)n1` [Compound 75, 1-cyclopropyl-N-(5-(3-fluorobenzyl)pyridin-2-yl)-6-oxo-1,6-dihydropyridazine-3-carboxamide], the IC50 at human SCD1 (setting [1]) turned out to be 1490 nM; on human SCD5 (setting [2]), 10 nM.

Consider `O=C(Nc1ccc(Cc2ccc(F)c(Cl)c2)cn1)c1ccc(=O)n(C2CC2)n1` [Compound 76, N-(5-(3-chloro-4-fluorobenzyl)pyridin-2-yl)-1-cyclopropyl-6-oxo-1,6-dihydropyridazine-3-carboxamide], for which the IC50 at human SCD1 (setting [1]) and at human SCD5 (setting [2]) was 10 nM each time.

On to `O=C(Nc1ccc(Cc2cccc(F)c2)cn1)c1ccc(=O)n(CC2CC2)n1` [Compound 77, 1-(cyclopropylmethyl)-N-(5-(3-fluorobenzyl)pyridin-2-yl)-6-oxo-1,6-dihydropyridazine-3-carboxamide], for which the IC50 at human SCD1 (setting [1]) is > 45000 nM; at human SCD5 (setting [2]) it was 6730 nM.

For the molecule `CCn1cc(C(=O)Nc2ccc(Cc3cc(F)cc(OC)c3)cn2)ccc1=O` [Compound 78, 1-ethyl-N-(5-(3-fluoro-5-methoxybenzyl)pyridin-2-yl)-6-oxo-1,6-dihydropyridine-3-carboxamide], the IC50 was > 45000 nM at human SCD1 (setting [1]) and 640 nM at human SCD5 (setting [2]).

Consider `CCn1cc(NC(=O)c2ccc(Cc3cc(F)cc(Cl)c3)cn2)ccc1=O` [Compound 79, 5-(3-Chloro-5-fluorobenzyl)-N-(1-ethyl-6-oxo-1,6-dihydropyridin-3-yl)picolinamide], for which the IC50 on human SCD1 (setting [1]) is 5190 nM; at human SCD5 (setting [2]), 10 nM.

In the case of `CCn1cc(C(=O)Nc2ccc(Cc3ccc(F)cc3)cn2)ccc1=O` [Compound 81, 1-ethyl-N-(5-(4-fluorobenzyl)pyridin-2-yl)-6-oxo-1,6-dihydropyridine-3-carboxamide], the figures for the IC50 on human SCD1 (setting [1]) and at human SCD5 (setting [2]) were > 45000 nM and 2420 nM, respectively.

As for `CCn1cc(C(=O)Nc2ccc(Cc3ccc(F)c(Cl)c3)cn2)ccc1=O` [Compound 82, N-(5-(3-chloro-4-fluorobenzyl)pyridin-2-yl)-1-ethyl-6-oxo-1,6-dihydropyridine-3-carboxamide], the figures for the IC50 on human SCD1 (setting [1]) and on human SCD5 (setting [2]) were > 45000 nM and 30 nM, respectively.

Turning to `CC(C)n1cc(C(=O)Nc2ccc(Cc3cccc(Cl)c3)cn2)ccc1=O` [Compound 83, N-(5-(3-chlorobenzyl)pyridin-2-yl)-1-isopropyl-6-oxo-1,6-dihydropyridine-3-carboxamide], the IC50 at human SCD1 (setting [1]) was > 45000 nM; against human SCD5 (SCD5 IC50), 420 nM.

With `CCn1cc(C(=O)Nc2ccc(Cc3cccc(Cl)c3)cn2)ccc1=O` [Compound 84, N-(5-(3-chlorobenzyl)pyridin-2-yl)-1-ethyl-6-oxo-1,6-dihydropyridine-3-carboxamide], the IC50 stood at 6660 nM at human SCD1 (setting [1]) and 370 nM at human SCD5 (setting [2]).

Regarding `CN1N=C(NC(=O)c2ccc(Cc3cccc(Cl)c3)cn2)CCC1=O` [Compound 86, 5-(3-Chlorobenzyl)-N-(1-methyl-6-oxo-1,4,5,6-tetrahydropyridazin-3-yl)picolinamide], the figures for the IC50 on human SCD1 (setting [1]) and on human SCD5 (setting [2]) were 9690 nM and 70 nM, respectively.

As for `CN1N=C(NC(=O)c2ccc(Cc3ccc(F)c(F)c3)cn2)CCC1=O` [Compound 87, 5-(3,4-Difluorobenzyl)-N-(1-methyl-6-oxo-1,4,5,6-tetrahydropyridazin-3-yl)picolinamide], the IC50 on human SCD1 (setting [1]) is > 45000 nM; on human SCD5 (setting [2]), 280 nM.

Turning to `Cn1nc(NC(=O)c2ccc(Cc3cccc(F)c3)cn2)ccc1=O` [Compound 88, 5-(3-Fluorobenzyl)-N-(1-methyl-6-oxo-1,6-dihydropyridazin-3-yl)picolinamide], the figures for the IC50 on human SCD1 (setting [1]) and at human SCD5 (setting [2]) were 650 nM and 20 nM, respectively.

For the molecule `Cn1nc(NC(=O)c2ccc(Cc3cccc(Cl)c3)cn2)ccc1=O` [Compound 89, 5-(3-Chlorobenzyl)-N-(1-methyl-6-oxo-1,6-dihydropyridazin-3-yl)picolinamide], the IC50 was 110 nM at human SCD1 (setting [1]) and 10 nM at human SCD5 (setting [2]).

As to `CN1N=C(NC(=O)c2ccc(Cc3cccc(F)c3)cn2)CCC1=O` [Compound 90, 5-(3-Fluorobenzyl)-N-(1-methyl-6-oxo-1,4,5,6-tetrahydropyridazin-3-yl)picolinamide], the IC50 on human SCD1 (setting [1]) came out at 18000 nM; at human SCD5 (setting [2]), 620 nM.

Consider `Cn1ccc(C(=O)Nc2ccc(Cc3cccc(Cl)c3)cn2)n1` [Compound 91, N-(5-(3-chlorobenzyl)pyridin-2-yl)-1-methyl-1H-pyrazole-3-carboxamide], for which the IC50 on human SCD1 (setting [1]) and at human SCD5 (setting [2]) was 10 nM each time.

`Cn1ccc(C(=O)Nc2ccc(Cc3ccc(F)c(F)c3)cn2)n1` [Compound 92, N-(5-(3,4-difluorobenzyl)pyridin-2-yl)-1-methyl-1H-pyrazole-3-carboxamide]: the figures for the IC50 on human SCD1 (setting [1]) and at human SCD5 (setting [2]) were 110 nM and 20 nM, respectively.

Turning to `Cn1ccc(C(=O)Nc2ccc(Cc3ccc(F)cc3)cn2)n1` [Compound 93, N-(5-(4-fluorobenzyl)pyridin-2-yl)-1-methyl-1H-pyrazole-3-carboxamide], the IC50 at human SCD1 (setting [1]) amounted to 550 nM; at human SCD5 (setting [2]), 20 nM.

For the molecule `Cn1cc(C(=O)Nc2ccc(Cc3cccc(Cl)c3)cn2)cn1` [Compound 94, N-(5-(3-chlorobenzyl)pyridin-2-yl)-1-methyl-1H-pyrazole-4-carboxamide], the IC50 at human SCD1 (setting [1]) worked out at 30 nM; at human SCD5 (setting [2]), 10 nM.
